Source: ChEMBL document CHEMBL3856212, “Synthesis, anti-proliferative and genotoxicity studies of 6-chloro-5-(2-substituted-ethyl)-1,3-dihydro-2H-indol-2-ones and 6-chloro-5-(2-chloroethyl)-3-(alkyl/ary-2-ylidene)indolin-2-ones” (Eur J Med Chem, 2016)

Assays:
[1] = Cytotoxicity against human NCI-H460 cells assessed as growth inhibition after 48 hrs by SRB assay; type: functional; conditions: NCI-H460, 48 h
[2] = Cytotoxicity against human MALME-3M cells assessed as assessed as growth inhibition at 10^-5 M after 48 hrs by SRB assay relative to control; type: functional; conditions: read-out: GI
[3] = Cytotoxicity against human SK-MEL-2 cells assessed as growth inhibition after 48 hrs by SRB assay; type: functional; conditions: SK-MEL-2, 48 h
[4] = Cytotoxicity against human SF295 cells assessed as growth inhibition after 48 hrs by SRB assay; type: functional; conditions: SF-295, 48 h
[5] = Cytotoxicity against human NCI-H23 cells assessed as assessed as growth inhibition at 10^-5 M after 48 hrs by SRB assay relative to control; type: functional; conditions: NCI-H23, 48 h, read-out: GI
[6] = Cytotoxicity against human LOXIMVI cells assessed as assessed as growth inhibition at 10^-5 M after 48 hrs by SRB assay relative to control; type: functional; conditions: LOX IMVI, read-out: GI
[7] = Cytotoxicity against human MDA-MB-468 cells assessed as growth inhibition after 48 hrs by SRB assay; type: functional; conditions: MDA-MB-468, 48 h
[8] = Induction of apoptosis in mouse EAC cells at 125 uM after 24 hrs by acridine orange dye-based fluorescence microscopy (reference value: 0.66 +/- 0.33%); type: cell-based; conditions: ehrlich
[9] = Cytotoxicity against human SK-MEL-5 cells assessed as growth inhibition after 48 hrs by SRB assay; type: functional; conditions: SK-MEL-5, 48 h
[10] = Cytotoxicity against human CCRF-CEM cells assessed as growth inhibition after 48 hrs by SRB assay; type: functional
[11] = Cytotoxicity against human Hs 578T cells assessed as assessed as growth inhibition at 10^-5 M after 48 hrs by SRB assay relative to control; type: functional; conditions: read-out: GI
[12] = Cytotoxicity against human OVCAR3 cells assessed as growth inhibition after 48 hrs by SRB assay; type: functional; conditions: OVCAR-3, 48 h
[13] = Cytotoxicity against human NCI-ADR-RES cells assessed as assessed as growth inhibition at 10^-5 M after 48 hrs by SRB assay relative to control; type: functional; conditions: read-out: GI
[14] = Cytotoxicity against human U251 cells assessed as growth inhibition after 48 hrs by SRB assay; type: functional; conditions: U-251, 48 h
[15] = Cytotoxicity against human ACHN cells assessed as growth inhibition after 48 hrs by SRB assay; type: functional
[16] = Cytotoxicity against human HCT15 cells assessed as assessed as growth inhibition at 10^-5 M after 48 hrs by SRB assay relative to control; type: functional; conditions: HCT-15, 48 h, read-out: GI
[17] = Cytotoxicity against human PC3 cells assessed as assessed as growth inhibition at 10^-5 M after 48 hrs by SRB assay relative to control; type: functional; conditions: PC-3, 48 h, read-out: GI
[18] = Cytotoxicity against human K562 cells assessed as growth inhibition after 48 hrs by SRB assay; type: functional; conditions: K562, 48 h
[19] = Cytotoxicity against human NCI-ADR-RES cells assessed as growth inhibition after 48 hrs by SRB assay; type: functional
[20] = Cytotoxicity against human NCI-H226 cells assessed as assessed as growth inhibition at 10^-5 M after 48 hrs by SRB assay relative to control; type: functional; conditions: NCI-H226, 48 h, read-out: GI
[21] = Cytotoxicity against human A498 cells assessed as assessed as growth inhibition at 10^-5 M after 48 hrs by SRB assay relative to control; type: functional; conditions: A498, 48 h, read-out: GI
[22] = Cytotoxicity against human MCF7 cells assessed as growth inhibition after 48 hrs by SRB assay; type: functional; conditions: MCF7, 48 h
[23] = Cytotoxicity against human 786-0 cells assessed as assessed as growth inhibition at 10^-5 M after 48 hrs by SRB assay relative to control; type: functional; conditions: 786-0, 48 h, read-out: GI
[24] = Cytotoxicity against human A498 cells assessed as growth inhibition after 48 hrs by SRB assay; type: functional; conditions: A498, 48 h
[25] = Cytotoxicity against human U251 cells assessed as assessed as growth inhibition at 10^-5 M after 48 hrs by SRB assay relative to control; type: functional; conditions: U-251, 48 h, read-out: GI
[26] = species on record: Mus musculus; experiment: Genotoxicity in mouse EAC cells at 125 uM after 24 hrs by micronucleus assay (reference value: 3.5 +/- 0.30%); type: toxicity, cell-based; conditions: ehrlich
[27] = Cytotoxicity against human A549 cells assessed as assessed as growth inhibition at 10^-5 M after 48 hrs by SRB assay relative to control; type: functional; conditions: A549, 48 h, read-out: GI
[28] = Cytotoxicity against human OVCAR5 cells assessed as assessed as growth inhibition at 10^-5 M after 48 hrs by SRB assay relative to control; type: functional; conditions: OVCAR-5, 48 h, read-out: GI
[29] = Cytotoxicity against human M14 cells assessed as assessed as growth inhibition at 10^-5 M after 48 hrs by SRB assay relative to control; type: functional; conditions: M14, 48 h, read-out: GI
[30] = Cytotoxicity against human HCT116 cells assessed as growth inhibition after 48 hrs by SRB assay; type: functional; conditions: HCT-116, 48 h
[31] = Cytotoxicity against human HCC2998 cells assessed as assessed as growth inhibition at 10^-5 M after 48 hrs by SRB assay relative to control; type: functional; conditions: HCC 2998, 48 h, read-out: GI
[32] = Cytotoxicity against human BT549 cells assessed as assessed as growth inhibition at 10^-5 M after 48 hrs by SRB assay relative to control; type: functional; conditions: BT-549, 48 h, read-out: GI
[33] = Cytotoxicity against human SN12C cells assessed as assessed as growth inhibition at 10^-5 M after 48 hrs by SRB assay relative to control; type: functional; conditions: read-out: GI
[34] = Cytotoxicity against human SN12C cells assessed as growth inhibition after 48 hrs by SRB assay; type: functional
[35] = read-out: LD50 (the source's name)

SMILES: O=C1Cc2cc(CCn3cncn3)c(Cl)cc2N1
- GI50 [1]: 6860 nM
- TGI [1]: > 1000 nM
- CC50 [1, 35]: > 1000 nM
- inhibition of growth at 10 µM [2]: 6.24%
- GI50 [3]: 1240 nM
- TGI [3]: > 1000 nM
- CC50 [3, 35]: > 1000 nM
- GI50 [4]: 3710 nM
- TGI [4]: > 1000 nM
- CC50 [4, 35]: > 1000 nM
- inhibition of growth at 10 µM [5]: 75.9%
- inhibition of growth at 10 µM [6]: 19%
- GI50 [7]: 2180 nM
- TGI [7]: 9540 nM
- CC50 [7, 35]: > 1000 nM
- Activity [8]: 0.6%
- GI50 [9]: 1010 nM
- TGI [9]: > 1000 nM
- CC50 [9, 35]: > 1000 nM
- GI50 [10]: 3500 nM
- TGI [10]: > 1000 nM
- CC50 [10, 35]: > 1000 nM
- inhibition of growth at 10 µM [11]: 71.4%
- GI50 [12]: 1000 nM
- TGI [12]: > 1000 nM
- CC50 [12, 35]: > 1000 nM
- inhibition of growth at 10 µM [13]: 47.1%
- GI50 [14]: 1450 nM
- TGI [14]: > 1000 nM
- CC50 [14, 35]: > 1000 nM
- GI50 [15]: 1000 nM
- TGI [15]: > 1000 nM
- CC50 [15, 35]: > 1000 nM
- inhibition of growth at 10 µM [16]: 45.4%
- inhibition of growth at 10 µM [17]: 13.6%
- GI50 [18]: 7680 nM
- TGI [18]: > 1000 nM
- CC50 [18, 35]: > 1000 nM
- GI50 [19]: 5850 nM
- TGI [19]: > 1000 nM
- CC50 [19, 35]: > 1000 nM
- inhibition of growth at 10 µM [20]: 25.2%
- inhibition of growth at 10 µM [21]: 52.9%
- GI50 [22]: 4020 nM
- TGI [22]: > 1000 nM
- CC50 [22, 35]: > 1000 nM
- inhibition of growth at 10 µM [23]: 5.34%
- GI50 [24]: 3250 nM
- TGI [24]: > 1000 nM
- CC50 [24, 35]: > 1000 nM
- inhibition of growth at 10 µM [25]: 26.6%
- Activity [26]: 3.27%
- inhibition of growth at 10 µM [27]: 40.2%
- inhibition of growth at 10 µM [28]: 12.6%
- inhibition of growth at 10 µM [29]: 76%
- GI50 [30]: 3200 nM
- TGI [30]: > 1000 nM
- CC50 [30, 35]: > 1000 nM
- inhibition of growth at 10 µM [31]: 24.9%
- inhibition of growth at 10 µM [32]: 32%
- inhibition of growth at 10 µM [33]: 44.2%
- GI50 [34]: 1000 nM
- TGI [34]: > 1000 nM
- CC50 [34, 35]: > 1000 nM
